According to patent US5232846A, “Method for producing a thermostable lipoprotein lipase from streptomyces” (Unitika Ltd., priority 1988, dated 1993):

tested on: LPL of the present invention produced by Streptomyces 7825; assay: Substrate specificity of the LPL on lipoproteins consisting of various triglycerides; type: biochemical; details: relative to olive oil as a standard (100%)
Description: In Table 1, the activity is expressed relative to an olive oil as a standard (100%).
Titer determination is principally based on the quantitative determination of glycerol formed through the action of LPL on artificial lipoprotein prepared from olive oil as described in Clin. Chim. Acta., Vol. 22, p.
A mixture of 5 g of olive oil and 5 ml of a 5% (v/v) Triton X-100 solution is subjected to ultrasonication for 10 minutes to prepare a substrate emulsion.
Seventy microliters of the abovementioned substrate solution, 20 μl of a 0.5M glycine buffer (pH 8.5), 50 μl of 10% (w/v) BSA, and 55 μl of water are mixed in a test tube, and the system is preheated at 37° C. 5 μl of an enzyme solution having an enzyme concentration adjusted to about 10 U/ml, is added to the system. The system is then allowed to react at 37° C. for 10 minutes. After completion of the reaction, the test tube is soaked in boiling water to stop the reaction. After allowing the test tube to cool, 400 μl of isopropanol is added to the reaction system, followed by stirring. The mixture is then centrifuged. 2 ml of isopropanol is then added to 100 μl of the supernatant liquor. The solution is mixed with 1 ml of the above prepared metaperiodic acid solution and 0.5 ml of the above prepared acetylacetone solution to effect a reaction at 50° C. for 30 minutes. The absorbance of the system at 405 nm is measured. A blank estimation (control) is run on a system containing no enzyme solution.
From the measured values, a calibration curve is prepared using a glycerol solution having a known concentration. Thus the glycerol content of the reaction mixture is determined using the prepared calibration curve.
The enzyme activity is expressed by taking the amount of the enzyme which forms 1 μmol of glycerol per minute as 1 U.

Compound | Relative Activity [%]
CC(=O)OCC(COC(C)=O)OC(C)=O [Triacetin] | 28
CCCC(=O)OCC(COC(=O)CCC)OC(=O)CCC [Tributyrin] | 22
CCCCCCCCCC(=O)OCC(COC(=O)CCCCCCCCC)OC(=O)CCCCCCCCC [Tricaprin] | 153
CCCCCC(=O)OCC(COC(=O)CCCCC)OC(=O)CCCCC [Tricaproin] | 46
CCCCCCCC(=O)OCC(COC(=O)CCCCCCC)OC(=O)CCCCCCC [Tricaprylin] | 148
CCCCCCCCCCCC(=O)OCC(COC(=O)CCCCCCCCCCC)OC(=O)CCCCCCCCCCC [Trilaurin] | 234
CCCCCCCC/C=C\CCCCCCCC(=O)OCC(COC(=O)CCCCCCC/C=C\CCCCCCCC)OC(=O)CCCCCCC/C=C\CCCCCCCC [Triolein] | 75
CCCCCCCCCCCCCCCC(=O)OCC(COC(=O)CCCCCCCCCCCCCCC)OC(=O)CCCCCCCCCCCCCCC [Tripalmitin] | 99
CCCCCCCCCCCCCCCCCC(=O)OCC(COC(=O)CCCCCCCCCCCCCCCCC)OC(=O)CCCCCCCCCCCCCCCCC [Tristearin] | 29

tested on: LPL of the present invention produced by Streptomyces 7825; assay: Inhibition of the LPL; type: biochemical; details: 400 μg/ml protamine sulfate

Compound | inhibition of LPL
protamine sulfate | about 30%

same assay, conditions: 10 mM deoxycholic acid

Compound | inhibition of LPL
C[C@H](CCC(=O)O)[C@H]1CC[C@H]2[C@@H]3CC[C@@H]4C[C@H](O)CC[C@]4(C)[C@H]3C[C@H](O)[C@]12C [deoxycholic acid] | about 40%

same assay, conditions: 3M NaCl

Compound | inhibition of LPL
[Cl-].[Na+] [NaCl] | about 40%
